Reference: patent publication US20180344646A1, “AMORPHOUS DISPERSION GRANULES AND ORAL DOSAGE FORMS” (PATHEON DEVELOPMENT SERVICES INC., priority 2015, published 2018)

Assay: In vitro non-sink dissolution, gastric-to-intestinal media transfer test
Format: physicochemical
Set-up: AUC free: concentration or dose not given beside the values; AUC total: unit not given here
Settings: for AUC free: free drug; for AUC total: non-sink
[1] = Table 5 (nifedipine), Fasted Simulated Gastric (0.1 N HCl)
[2] = Table 5 (nifedipine), Fasted Simulated Intestinal (FaSSIF, pH 6.8)

AUC free (Table 2, Fasted Simulated Gastric (0.1 N HCl)): 0.0 | AUC total (Table 2, Fasted Simulated Gastric (0.1 N HCl), 2 mg indomethacin per mL): 1020.4 | AUC free (Table 2, Fasted Simulated Intestinal (FaSSIF, H 6.8)): 63324.8 | AUC total (Table 2, Fasted Simulated Intestinal (FaSSIF, H 6.8), 1 mg indomethacin per mL): 81054.9 | AUC free [1]: 68.9 | AUC total [1]: 483.4 | AUC free [2]: 1349.5 | AUC total [2]: 2810.0
Compound: COc1ccc2c(c1)c(CC(=O)O)c(C)n2C(=O)c1ccc(Cl)cc1 [indomethacin crystalline API, indomethacin]
